The target in data set [1] is T1, Mitogen-activated protein kinase 14 (Homo sapiens, UniProt Q16539). As to the kind of experiment: Inhibition of human recombinant untagged p38alpha expressed in Escherichia coli at 10 uM using ATF2 as substrate incubated for 60 mins in presence of [33P]-ATP by radiometric assay relative to control.
The target of data set [2] is T2, TGF-beta receptor type-1 (Homo sapiens) (UniProt P36897).
T2 sequence (whole entry): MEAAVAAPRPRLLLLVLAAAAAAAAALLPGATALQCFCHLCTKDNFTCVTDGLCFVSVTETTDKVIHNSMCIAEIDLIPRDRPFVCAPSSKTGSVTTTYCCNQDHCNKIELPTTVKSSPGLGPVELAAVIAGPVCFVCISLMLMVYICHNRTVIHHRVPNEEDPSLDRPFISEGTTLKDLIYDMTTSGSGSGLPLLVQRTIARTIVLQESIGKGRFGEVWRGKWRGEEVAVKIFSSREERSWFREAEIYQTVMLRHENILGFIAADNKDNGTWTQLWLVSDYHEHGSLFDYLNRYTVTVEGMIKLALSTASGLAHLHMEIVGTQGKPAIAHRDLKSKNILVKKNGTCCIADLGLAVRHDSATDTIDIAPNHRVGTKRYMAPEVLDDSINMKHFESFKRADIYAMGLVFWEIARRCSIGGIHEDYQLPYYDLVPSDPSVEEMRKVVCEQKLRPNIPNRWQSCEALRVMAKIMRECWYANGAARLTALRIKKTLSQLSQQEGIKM
As to the kind of experiment: Inhibition of human recombinant GST-tagged ALK5 expressed in Sf9 insect cells at 10 uM using casein as substrate incubated for 60 mins in presence of [33P]-ATP by radiometric assay relative to control.

Data set [3] addresses T1, Mitogen-activated protein kinase 14. As to the kind of experiment: Inhibition of human recombinant untagged p38alpha expressed in Escherichia coli using ATF2 as substrate incubated for 60 mins in presence of [33P]-ATP by radiometric assay.
The target of the next data set is T3, TGF-beta receptor type-1 (Homo sapiens, UniProt P36897).
T3 sequence (P36897 whole entry): T2 sequence (whole entry)
As to the kind of experiment: Inhibition of human recombinant GST-tagged ALK5 expressed in Sf9 insect cells using casein as substrate incubated for 60 mins in presence of [33P]-ATP by radiometric assay.

The nature of data set [4]: Cytotoxicity against human LX2 cells assessed as reduction in cell viability at 4 to 100 uM incubated for 3 hrs by MTT assay. It is filed as cell-based. Background: Tetrazolium assays rely on reduction of a dye to a coloured formazan, in cell work by metabolically active cells.

The results in this text go back to ChEMBL document CHEMBL4359846, “Design, synthesis, and antifibrosis evaluation of 4-(benzo-[c][1,2,5]thiadiazol-5-yl)-3(5)-(6-methyl- pyridin-2-yl)pyrazole and 3(5)-(6-methylpyridin- 2-yl)-4-(thieno-[3,2,-c]pyridin-2-yl)pyrazole derivatives” (Eur J Med Chem, 2019).

pIC50: −log10 of the molar value.

T1 sequence (Q16539 whole entry): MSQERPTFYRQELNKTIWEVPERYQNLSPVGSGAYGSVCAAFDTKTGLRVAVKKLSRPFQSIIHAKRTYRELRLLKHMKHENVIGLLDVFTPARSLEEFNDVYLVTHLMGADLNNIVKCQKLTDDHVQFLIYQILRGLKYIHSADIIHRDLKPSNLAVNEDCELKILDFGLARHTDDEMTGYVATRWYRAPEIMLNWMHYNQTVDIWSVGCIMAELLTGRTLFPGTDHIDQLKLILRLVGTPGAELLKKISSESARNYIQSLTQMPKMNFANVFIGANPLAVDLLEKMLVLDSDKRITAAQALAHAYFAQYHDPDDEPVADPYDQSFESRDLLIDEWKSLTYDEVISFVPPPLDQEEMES

Broadly, the inhibition is the share of the control response that was lost under treatment. Regarding `Cc1cccc(-c2c(-c3ccc4nsnc4c3)cnn2CC(=O)Nc2ccccc2F)n1`, the inhibition in data set [1] lay within 0 to 66%; in data set [2], 52 to 98%.
The like results for `Cc1cccc(-c2c(-c3cc4cnccc4s3)cnn2CC(=O)Nc2ccccc2)n1` were, in that order, 0 to 66% and 46 to 91%.
The pIC50 is −log10 of the IC50, conventionally taken in molar units. As for `Cc1cccc(-c2nn(CC(=S)Nc3cccc(C#N)c3)cc2-c2cc3cnccc3s2)n1`, the inhibition in data set [1] is 0 to 66%. Moreover, the results for the negative logarithm of the IC50 (pIC50) (in data set [3]; on TGF-beta receptor type-1) were 5.02 and 7.11, respectively.
For `Cc1cccc(-c2c(-c3ccc4nsnc4c3)cnn2CC(=O)Nc2ccccc2)n1`, the inhibition in data set [1] is 0 to 66%; in data set [2] it was 52 to 98%.
For the compound `Cc1cccc(-c2nn(CC(=O)Nc3cccc(C#N)c3)cc2-c2ccc3nsnc3c2)n1`, the inhibition is 0 to 66% in data set [1] and 98 to 99% in data set [2]. Also, the values for the pIC50 (in data set [3]; on TGF-beta receptor type-1) were less than 5.00 and 6.78, respectively.
`Cc1cccc(-c2nn(CC(=O)Nc3ccccc3)cc2-c2ccc3nsnc3c2)n1`: the inhibition in data set [1] lay within 0 to 66%; in data set [2], 98 to 99%. The pIC50 was less than 5.00 in data set [3] and 7.52 on TGF-beta receptor type-1.
In the case of `Cc1cccc(-c2nn(CC(=S)Nc3cccc(F)c3)cc2-c2ccc3nsnc3c2)n1`, in data set [1], the inhibition lay in the range of 0 to 66%. For the same compound, the figures for the negative logarithm of the IC50 (pIC50) (in data set [3]; at TGF-beta receptor type-1) were 5.15 and 7.52, respectively. Besides, in data set [4], the Activity result is recorded as “Toxic”.
As to `Cc1cccc(-c2c(-c3ccc4nsnc4c3)cnn2CC(=O)Nc2cccc(C#N)c2)n1`, the values for the inhibition in data set [1] and in data set [2] were 0 to 66% and 52 to 98%, respectively.
`Cc1cccc(-c2nn(CC(=O)Nc3cccc(C#N)c3)cc2-c2cc3cnccc3s2)n1`: the inhibition lay in the range of 0 to 66% in data set [1] and 98 to 100% in data set [2]. For the same compound, the pIC50 is less than 5.00 in data set [3] and 6.64 at TGF-beta receptor type-1.
With `Cc1cccc(-c2nn(CC(=S)Nc3cccc(C#N)c3)cc2-c2ccc3nsnc3c2)n1`, the inhibition in data set [1] was in the range of 0 to 66%. The negative logarithm of the IC50 (pIC50) in data set [3] is less than 5.00; at TGF-beta receptor type-1, 6.94.
For the compound `Cc1cccc(-c2nn(CC(=O)Nc3cccc(F)c3)cc2-c2cc3cnccc3s2)n1`, the inhibition in data set [1] fell in the range of 0 to 66%; in data set [2] it was 98 to 100%. The negative logarithm of the IC50 (pIC50) in data set [3] is less than 5.00; at TGF-beta receptor type-1 it was 6.92.
Take `Cc1cccc(-c2c(-c3cc4cnccc4s3)cnn2CC(=O)Nc2ccccc2F)n1`: the inhibition in data set [1] is 0 to 66%; in data set [2] it was 46 to 91%.
Consider `Cc1cccc(-c2nn(CC(=S)Nc3ccccc3F)cc2-c2ccc3nsnc3c2)n1`, for which the inhibition in data set [1] is 0 to 66%. Also, the negative logarithm of the IC50 (pIC50) in data set [3] is 5.42; at TGF-beta receptor type-1, 7.26.
Turning to `Cc1cccc(-c2nn(CC(=O)Nc3ccccc3F)cc2-c2ccc3nsnc3c2)n1`, the values for the inhibition in data set [1] and in data set [2] were 0 to 66% and 98 to 99%, respectively. Besides, the values for the pIC50 (in data set [3]; at TGF-beta receptor type-1) were less than 5.00 and 6.77, respectively.
With `Cc1cccc(-c2nn(CC(=S)Nc3ccccc3)cc2-c2ccc3nsnc3c2)n1`, the inhibition in data set [1] lay in the range of 0 to 66%. Also, the negative-log IC50 (pIC50) in data set [3] is 5.24; on TGF-beta receptor type-1, 7.38.
As for `Cc1cccc(-c2c(-c3cc4cnccc4s3)cnn2CC(=O)Nc2cccc(F)c2)n1`, the inhibition in data set [1] lay in the range of 0 to 66%; in data set [2] it was 46 to 91%.
Consider `Cc1cccc(-c2nn(CC(=O)Nc3ccccc3)cc2-c2cc3cnccc3s2)n1`, for which the inhibition in data set [1] lay within 0 to 66%. In addition, the pIC50 in data set [3] is 5.09; on TGF-beta receptor type-1 it was 7.41. The Activity entry in data set [4] is reported as “Non-Toxic”.
As to `Cc1cccc(-c2nn(CC(=O)Nc3ccccc3F)cc2-c2cc3cnccc3s2)n1`, the inhibition in data set [1] lay in the range of 0 to 66%; in data set [2], 98 to 100%. Besides, the pIC50 was less than 5.00 in data set [3] and 6.51 on TGF-beta receptor type-1.
`Cc1cccc(-c2nn(CC(=S)Nc3cccc(F)c3)cc2-c2cc3cnccc3s2)n1`: the inhibition in data set [1] was 0 to 66%. The negative-log IC50 (pIC50) in data set [3] was less than 5.00; on TGF-beta receptor type-1, 6.90.
With `Cc1cccc(-c2c(-c3ccc4nsnc4c3)cnn2CC(=O)Nc2cccc(F)c2)n1`, the inhibition in data set [1] was 0 to 66%; in data set [2] it was 52 to 98%.
For `Cc1cccc(-c2nn(CC(=O)Nc3cccc(F)c3)cc2-c2ccc3nsnc3c2)n1`, the inhibition in data set [1] is 0 to 66%; in data set [2], 98 to 99%. Moreover, the pIC50 in data set [3] is less than 5.00; at TGF-beta receptor type-1 it was 7.06.
Turning to `Cc1cccc(-c2c(-c3cc4cnccc4s3)cnn2CC(=O)Nc2cccc(C#N)c2)n1`, the inhibition in data set [1] lay within 0 to 66%; in data set [2] it was 46 to 91%.
